Values joined by “and” are separate entries in the source; they are usually repeats but may differ in a detail not shown here. Equal entries are not always repeated.
Test system: S. cerevisiae
Test: Batch fermentation of amino acid detoxified loblolly pine hydrolysates by Baker yeast
Format: cell-based, Saccharomyces cerevisiae
Conditions: pH 6.0, 60° C.; for CEtOH, ethanol final concentration at 48 h / CHMF, percentage of HMF consumed at 48 h / QEtOH, volumetric ethanol productivity in the first 6 h / RG, glucose consumption rate in the first 6 h / RM, mannose consumption rate in the first 6 h / YEtOH, ethanol yield from total glucose and mannose at 48 h: hydrolysates detoxified with amino acid 0.2% w/v, 2 hours
Excerpt: Loblolly pine (Pinus taeda) wood chips (1.0×1.0 cm, L×W) were collected by Forest Products Laboratory at Auburn University, located in Auburn, Ala. Dilute acid pretreatment was used to produce biomass hydrolysates in a 4.0 L Parr batch reactor (Parr Instrument Co., Moline, Ill.) as previously described (Lai, C. H., Tu, M. B., Li, M., Yu, S. Y. 2014. Remarkable solvent and extractable lignin effects on enzymatic digestibility of organosolv pretreated hardwood. Bioresource Technology, 156, 92-98). Briefly, wood chips (400 grams, dry weight) were soaked in 1% (w/w) sulfuric acid overnight (7:1 liquor/solid ratio) prior to the pretreatment, and then loaded into a reactor and treated at 170° C. for 60 minutes.
To achieve higher ethanol titer in fermentation, loblolly pine hydrolysates were concentrated to approximately one-third of its original volume using a rotary evaporator (IKA RV10 basic) at 40° C. and 60 rotations per minute (rpm). The hydrolysates were first adjusted to pH 4.0 before evaporation. After the concentration, the sugar contents of the hydrolysates were analyzed by HPLC.
[…] The detoxification experiments were performed in a 250 mL flask and placed in a temperature-controlled water batch.
Baker yeast (Fleischmann's), S. cerevisiae, was used for all the fermentation experiments in this study. The yeast was maintained on YDP medium containing (g/L): 20 glucose, 20 peptone, 10 yeast extract and 20 agar. Isolated colony was grown in YDP liquid medium overnight and harvested as fermentation inoculum. The yeast concentration was measured using an UV-vis spectrophotometer. Inoculum of 2.0 g/L was used for all fermentation experiments.
Batch fermentation was carried out in 125 mL serum bottles containing 50 mL broths (untreated or detoxified hydrolysates, untreated or detoxified cinnamaldehyde sugar solution) without any additional nutrient supplement. All the fermentation broths were adjusted to pH 6 with NaOH or H2SO4 and sterilized by passing 0.2 μm sterile filters. After inoculation, the serum bottle was sealed with rubber stopper and aluminum seal, and equipped with cannulas for CO2 release. All fermentation experiments were incubated at 30° C., spun at 150 rpm in a shaker (E24, New Brunswick Scientific). Aliquots of samples were withdrawn at 0, 1, 3, 6, 9, 12, 24, 36 and 48 hours for the time course analysis of both starting material and products. Fermentation was carried out in duplicate. The volumetric ethanol productivity and initial consumption rate of glucose (RG) and mannose (RM) was calculated based on the sugar consumed in the first 6 h of fermentation as described previously (Cao, D. X., Tu, M. B., Xie, R., Li, J., Wu, Y. N., Adhikari, S. 2014. Inhibitory Activity of Carbonyl Compounds on Alcoholic Fermentation by Saccharomyces cerevisiae. Journal of Agricultural and Food Chemistry, 62(4), 918-926).
Ethanol, acetic acid, levulinic acid, formic acid, furfural and HMF were analyzed using an Aminex HPX-87H column (300×7.8 mm) with a refractive index detector. The elution conditions were column temperature of 45° C. and flow rate of 0.6 ml/min with 5.0 mM H2SO4 as the mobile phase in a 60 min isocratic run.

Compound | CEtOH, ethanol final concentration at 48 h [g/L] | CHMF, percentage of HMF consumed at 48 h [%] | QEtOH, volumetric ethanol productivity in the first 6 h [g/L/h] | RG, glucose consumption rate in the first 6 h | RM, mannose consumption rate in the first 6 h | YEtOH, ethanol yield from total glucose and mannose at 48 h [g/g] | further results
C[C@H](N)C(=O)O [Alanine, alanine] | 2.14 ± 0.01 | 11.03 ± 1.64 | 0.28 ± 0.00 | 0.21 ± 0.02 g/L/h | 0.44 ± 0.07 g/L/h | 0.04 ± 0.00 | 
N=C(N)NCCC[C@H](N)C(=O)O [Arginine, arginine] | 2.62 ± 0.03 | 12.69 ± 0.27 | 0.34 ± 0.01 | 0.29 ± 0.02 g/L/h | 0.59 ± 0.07 g/L/h | 0.05 ± 0.00 | 
NC(=O)C[C@H](N)C(=O)O [Asparagine, asparagine] | 11.18 ± 0.15 |  | 0.58 ± 0.01 | 0.65 ± 0.01 g/L/h | 0.87 ± 0.10 g/L/h |  | CEtOH, ethanol final concentration at 48 h (listed as asparagine): 11.18 g/L; RG, glucose consumption rate in the first 6 h (listed as asparagine): 0.65 g/L/h; RM, mannose consumption rate in the first 6 h (listed as asparagine): 0.87 g/L/h
N[C@@H](CC(=O)O)C(=O)O [Aspartate, aspartate] | 3.86 ± 0.18 | 16.27 ± 0.30 | 0.47 ± 0.00 | 0.43 ± 0.02 g/L/h | 0.90 ± 0.01 g/L/h | 0.07 ± 0.00 | 
N[C@@H](CCC(=O)O)C(=O)O [Glutamate, glutamate] | 3.63 ± 0.23 | 15.40 ± 0.72 | 0.41 ± 0.01 | 0.34 ± 0.02 g/L/h | 0.56 ± 0.03 g/L/h | 0.07 ± 0.00 | 
NC(=O)CC[C@H](N)C(=O)O [Glutamine, glutamine] | 3.52 ± 0.06 | 13.38 ± 0.99 | 0.40 ± 0.00 | 0.38 ± 0.02 g/L/h | 0.73 ± 0.01 g/L/h | 0.06 ± 0.01 | 
N[C@@H](Cc1c[nH]cn1)C(=O)O [Histidine, histidine] | 23.07 ± 0.35 |  | 0.78 ± 0.00 | 0.94 ± 0.00 g/L/h | 1.02 ± 0.01 g/L/h | 0.42 ± 0.01 | CEtOH, ethanol final concentration at 48 h (listed as histidine): 23.07 g/L; RG, glucose consumption rate in the first 6 h (listed as histidine): 0.94 g/L/h; RM, mannose consumption rate in the first 6 h (listed as histidine): 1.02 g/L/h; YEtOH, ethanol yield from total glucose and mannose at 48 h (listed as histidine): 0.42 g/g; sugar consumption rate (glucose and mannose) less than those from cysteine detoxification (2 hours detoxification): 50%
CC[C@H](C)[C@H](N)C(=O)O [Isoleucine, isoleucine] | 5.03 ± 1.46 | 17.36 ± 3.50 | 0.44 ± 0.08 | 0.37 ± 0.02 g/L/h | 0.66 ± 0.06 g/L/h | 0.09 ± 0.03 | 
CC(C)C[C@H](N)C(=O)O [Leucine, leucine] | 2.83 ± 0.19 | 12.84 ± 1.32 | 0.34 ± 0.01 | 0.27 ± 0.04 g/L/h | 0.64 ± 0.12 g/L/h | 0.05 ± 0.00 | 
NCCCC[C@H](N)C(=O)O [Lysine, lysine] | 14.40 ± 0.57 |  | 0.72 ± 0.01 | 0.80 ± 0.06 g/L/h | 1.09 ± 0.13 g/L/h |  | CEtOH, ethanol final concentration at 48 h (listed as lysine): 14.40 g/L; RG, glucose consumption rate in the first 6 h (listed as lysine): 0.80 g/L/h; RM, mannose consumption rate in the first 6 h (listed as lysine): 1.09 g/L/h
CSCC[C@H](N)C(=O)O [Methionine, methionine] | 3.11 ± 0.02 | 12.78 ± 0.10 | 0.31 ± 0.00 | 0.27 ± 0.01 g/L/h | 0.63 ± 0.02 g/L/h | 0.06 ± 0.00 | 
N[C@@H](Cc1ccccc1)C(=O)O [Phenylalanine, phenylalanine] | 1.87 ± 0.02 | 12.69 ± 1.12 | 0.28 ± 0.00 | 0.24 ± 0.01 g/L/h | 0.56 ± 0.01 g/L/h | 0.03 ± 0.00 | 
O=C(O)[C@@H]1CCCN1 [Proline, proline] | 3.12 ± 0.13 | 13.35 ± 1.05 | 0.33 ± 0.00 | 0.27 ± 0.05 g/L/h | 0.67 ± 0.18 g/L/h | 0.06 ± 0.00 | 
N[C@@H](CO)C(=O)O [Serine, serine] | 3.87 ± 0.08 | 15.66 ± 0.11 | 0.45 ± 0.00 | 0.38 ± 0.00 g/L/h | 0.65 ± 0.13 g/L/h | 0.07 ± 0.00 | 
C[C@@H](O)[C@H](N)C(=O)O [Threonine, threonine] | 3.96 ± 0.13 | 16.19 ± 0.87 | 0.41 ± 0.01 | 0.36 ± 0.02 g/L/h | 0.67 ± 0.03 g/L/h | 0.07 ± 0.00 | 
N[C@@H](Cc1c[nH]c2ccccc12)C(=O)O [Tryptophan, tryptophan] | 11.59 ± 0.25 |  | 0.63 ± 0.01 | 0.69 g/L/h and 0.69 ± 0.00 g/L/h | 0.89 g/L/h and 0.89 ± 0.04 g/L/h |  | CEtOH, ethanol final concentration at 48 h (listed as tryptophan): 11.59 g/L
N[C@@H](Cc1ccc(O)cc1)C(=O)O [Tyrosine, tyrosine] | 2.16 ± 0.25 | 12.17 ± 0.92 | 0.30 ± 0.02 | 0.25 ± 0.02 g/L/h | 0.59 ± 0.05 g/L/h | 0.04 ± 0.00 | 
